Experimental data: US4493843A, “Indole and indoline carboxylic acid compounds and method of use” (May & Baker Limited, priority 1980, dated 1985)
Like-named read-outs stand apart in the source and are kept apart here.

System: serum cholesterol and serum triglycerides
Assay: Hypolipidaemic activity in rats (compound in diet, last 7 of 10 days)
Type: in vivo, Male Wistar rats
Settings: Rattus norvegicus, po, 168 h, 7 days; for change in vivo at 0.2 % strength: 0.2 % w/w dose in diet; for change in vivo at 0.1 % strength: 0.1 % w/w dose in diet
Procedure: Hypolipidaemic Activity in Rats
Male Wistar rats each weighing between 120 and 150 g were caged in groups of eight and fed a powdered diet for 10 days. For the last 7 days of that period the test compound was administered orally by mixing the compound in the diet and allowing the animals to feed normally. Food consumption was measured on day 9 for each group.
At noon on day 10 the animals were killed by inhalation of carbon dioxide from solid carbon dioxide. A sample of blood was removed by cardiac puncture and the serum cholesterol and serum triglycerides were analysed by means of an autoanalyser.
Control groups (receiving only the normal, unmedicated diet) were included with each test.
The percentage reductions in the concentrations of serum cholesterol and serum triglycerides were calculated by comparison with the simultaneous controls, for each concentration of the test compound used.

[1] = read-out: % change in serum cholesterol compared with control
[2] = read-out: % change in serum triglycerides compared with control

SMILES	change in vivo at 0.2 % strength [1] [%]	change in vivo at 0.2 % strength [2] [%]	change in vivo at 0.1 % strength [1] [%]	change in vivo at 0.1 % strength [2] [%]
CCCCCCCCCCCCCCCCCCc1c[nH]c2ccc(C(=O)O)cc12 [Compound BSS, 3-(n-octadecyl)indole-5-carboxylic acid]	-9	-11	–	–
CCCCCCCCCCC1Cc2cc(C(=O)O)ccc2N1 (racemic) [Compound ACC, (RS)-2-(n-decyl)indoline-5-carboxylic acid]	-26	-71	–	–
CCCCCCCCCCCCc1cc2cc(C(=O)O)ccc2[nH]1 [Compound Y, 2-(n-dodecyl)indole-5-carboxylic acid]	-30	-80	-20	-51
CCCCCCCCCCCCCCCCCc1cc2cc(C(=O)OC)ccc2[nH]1 [Compound AWW, methyl 2-(n-heptadecyl)indole-5-carboxylate]	-24	–	–	–
CCCCCCCCCCCCCCCc1cc2c(C(=O)OCCCC)cccc2[nH]1 [Compound MM, n-butyl 2-(n-pentadecyl)indole-4-carboxylate]	25	-41	–	–
CCCCCCCCCCCCCCC1Cc2ccc(C(=O)O)cc2N1 (racemic) [Compound AGG, (RS)-2-(n-tetradecyl)indoline-6-carboxylic acid]	-8	-23	–	–
CCCCCCCc1cc2ccc(C(=O)OCCCC)cc2[nH]1 [Compound AKK, n-butyl 2-(n-heptyl)indole-6-carboxylate]	-3	-10	–	–
CCCCCCCCCCCc1cc2ccc(C(=O)O)cc2[nH]1 [Compound C, 2-(n-undecyl)indole-6-carboxylic acid]	–	–	-28	-39
CCCCCCCCCCCCCc1cc2ccc(C(=O)OCC)cc2[nH]1 [Compound AMM, ethyl 2-(n-tridecyl)indole-6-carboxylate]	-4	-12	–	–
CCCCCCCCCCCCc1cc2cc(C(=O)OCCCC)ccc2[nH]1 [Compound KK, n-butyl 2-(n-dodecyl)indole-5-carboxylate]	-18	-34	–	–
CCCCCCCCCCCCc1c[nH]c2cc(C(=O)O)ccc12 [Compound BDD, 3-(n-dodecyl)indole-6-carboxylic acid]	-2	-5	–	–
CCCCCCCCCCC1CNc2ccc(C(=O)O)cc21 (racemic) [Compound BPP, (RS)-3-(n-decyl)indoline-5-carboxylic acid]	-3	0	–	–
CCCCCCCCCCCCCCCCCCCCc1cc2ccc(C(=O)OCCCC)cc2[nH]1 [Compound AQQ, n-butyl 2-(n-eicosyl)indole-6-carboxylate]	6	-12	–	–
CCCCCCCCCCCc1cc2cc(C(=O)O)ccc2[nH]1 [Compound F, 2-(n-undecyl)indole-5-carboxylic acid]	-37	-73	-18	-43
CCCCCCCCCCCCCCCCCCCc1cc2cc(C(=O)O)ccc2[nH]1 [Compound PP, 2-(n-nonadecyl)indole-5-carboxylic acid]	-13	-41	–	–
CCCCCCCCCCCCCCCc1cc2ccc(C(=O)OCCCC)cc2[nH]1 [Compound APP, n-butyl 2-(n-pentadecyl)indole-6-carboxylate]	-2	-20	–	–
CCCCCCCCCCCCCc1cc2cc(C(=O)O)ccc2[nH]1 [Compound H, 2-(n-tridecyl)indole-5-carboxylic acid]	-48	-68	-15	-26
CCCCCCCCCCCCCCCCCCc1c[nH]c2cc(C(=O)O)ccc12 [Compound BGG, 3-(n-octadecyl)indole-6-carboxylic acid]	-7	-7	–	–
CCCCCCCCCc1cc2ccc(C(=O)O)cc2[nH]1 [Compound L, 2-(n-nonyl)indole-6-carboxylic acid]	-21	-25	–	–
CCCCCCCc1cc2cc(C(=O)O)ccc2[nH]1 [Compound Q, 2-(n-heptyl)indole-5-carboxylic acid]	-10	-14	–	–
CCCCCCCCCCCCCCCCCc1cc2cc(C(=O)O)ccc2[nH]1 [Compound E, 2-(n-heptadecyl)indole-5-carboxylic acid]	-54	-65	-42	-55
